According to US5110927A (The United States of America as represented by the …, priority 1987, dated 1992):
Entries after “also recorded” stand apart in the source; their conditions may differ. Read-outs that look alike come from different tables or passages of the source.

Assays:
[1] = target: α1-adrenoceptor (3H-prazosin binding sites); test: displacement of 3H-prazosin from rat cerebral cortical (brain) membranes; settings: for -logIC50: 3H-prazosin displacement, rat cerebral cortical membranes
Experimental: IC50 values and apparent Ki values were determined as in Table 1.
(§1) Rat brain cortices were homogenized in approximately 30 volumes/wet weight of 50 mM Tris buffer, pH 7.4, containing 10 mM MgCl2 by use of a Polytron (setting 6 for 10 seconds). It should be noted that this buffer was used throughout the experimental procedures. The homogenate was centrifuged at 48,000×g for 10 minutes in a Sorvall RC-5B centrifuge. The resulting pellet was resuspended in buffer by use of a Polytron and recentrifuged. This process was repeated and the pellet was resuspended in approximately 200 volumes for affinity studies or 20 volumes for irreversibility experiments.
Specific binding was defined as the difference between total binding (measured in the absence of any ligand) and non-specific binding (measured in the presence of 10 microM phentolamine). Duplicate tubes were used for each condition. Reaction tubes were incubated for 30 minutes at 30° C., then diluted to 5 ml with ice cold buffer, and filtered under reduced pressure through Whatman GF/C glass fiber filters. The reaction tubes and filters were washed three additional times with buffer.

[2] = tested on: phenylephrine, alpha1-adrenergic pressor response; test: diastolic blood pressure response to phenylephrine in anesthetized rats; assay type: in vivo, rat; settings: i.v., prazosin 0.11 mg/kg or compound 47 0.09 mg/kg, 15 min
Experimental: (§2) Male rats were anesthetized, cannulated, and treated with hexamethonium bromide to block ganglionic effect, and their basal response in blood pressure to pressor compounds was measured. […] After fifteen minutes, the response in blood pressure to pressor compounds was re-evaluated.

[3] = tested on: hypertensive patients; normotensive and hypertensive animals; settings: human, in vivo; cited from earlier work
[4] = tested on: α1-adrenoceptor (3H-prazosin binding sites); test: irreversibility experiment: membranes preincubated with compound, washed, assayed for saturation of 3H-prazosin binding; design: species or system rat; settings: for irreversible blockade / effect on 3H-prazosin binding sites (in words): membranes, preincubation and washing
[5] = tested on: BHT 933, alpha2-adrenergic pressor response; test: diastolic blood pressure response to BHT 933 in anesthetized rats; assay type: in vivo, rat; settings: i.v., prazosin 0.11 mg/kg or compound 47 0.09 mg/kg, 15 min
Experimental: as §2

[6] = tested on: alpha1-adrenoceptors and other receptors; settings: prior art; cited from earlier work
[7] = tested on: α1-adrenoceptor (3H-prazosin binding sites); test: intact animal study: intraperitoneal injection, membranes prepared 16 hours later and assayed for saturation of 3H-prazosin binding; assay type: in vivo, rat
Experimental: Sixteen hours later, the animals were sacrificed, membranes were prepared from various tissues, and assayed for saturation of ^3 -prazosin binding.
To test its efficacy in vivo. compound No. 47 was injected intraperitoneally at a dose of 10 mg/kg into rats. In membranes prepared from brains and hearts of animals 16 hours after injection of compound 47, a 32-44% decrease in Bmax was noted, compared to animals injected with vehicle only. […]

[8] = tested on: beta-adrenoceptors (3H-DHA binding sites); test: irreversibility experiment: preincubation and washing of brain membranes, then 3H-DHA binding; design: species or system rat; settings: preincubated and washed
Experimental: (§3) FIG. 5 - In vitro blockage of adrenergic binding sites in rat brain membranes by compound No. b 47 Membranes were preincubated without 0---0, or with 0---0 1×10^-7 M of compound No. 47 and processed as described in the Methods. Membranes were assayed for ^3 -prazosin binding and either ^3 -DHA or ^3 -yohimbine binding. The data are the averages of two separate experiments.
(§4) Aliquots of a suspension of membranes (5 ml), prepared as described above, were incubated with either the addition of only buffer (control) or a solution of the tested compound at various concentrations ranging from 1×10^-10 to 1×10^-5 for about 60 minutes at about 30° C. The suspensions were then diluted to approximately 40 mL with buffer, and incubated a further 10 minutes on ice. The membranes were then washed by a series of four centrifugations and resuspensions before they were finally resuspended in approximately 50 mL buffer for assay of saturation of ^3 -prazosin binding.

[9] = target: T1, beta-adrenoceptors (3H-DHA binding sites) (Rattus norvegicus, UniProt P18090); test: displacement of 3H-DHA from rat brain membranes
T1 construct: Membranes from rat brain cortex were prepared; from tissue; host or cells: rat brain cortex membranes
Experimental: (§5) FIG. 1 - Affinity of compound No. 47 at adrenergic binding sites on brain membranes. Membranes from rat brain cortex were prepared and the displacement of either ^3 H-prazosin 0---0, ^3 H-yohimbine Δ---Δ or ^3 H-DHA --- by compound No. 47 was measured. IC50 values and apparent Ki values were determined as in Table 1. The data in the figure are from a representative experiment which was repeated. […] The results are the averages of two separate experiments.
as §1

[10] = tested on: cholinergic (muscarinic) activated efflux of calcium ions, rat parotid cells; test: calcium efflux activated by cholinergic (muscarinic) system in dispersed parotid cells; assay type: cell-based
[11] = tested on: catecholamine-activated efflux of calcium ions, rat parotid cells; test: calcium efflux activated by catecholamines in dispersed parotid cells; assay type: cell-based
[12] = target: alpha2-adrenoreceptors (3H-yohimbine binding sites); test: displacement of 3H-yohimbine from rat brain membranes
Experimental: as §5, §1

[13] = target: T2, α1-adrenoceptor (3H-prazosin binding sites) (Rattus norvegicus, UniProt P15823); test: irreversibility experiment: membranes preincubated with compound, washed, assayed for saturation of 3H-prazosin binding; settings: spleen membranes, FIG. 3; statistically insignificant
T2 construct: Rat brain cortices were homogenized; from tissue; host or cells: rat brain cortex membranes; for some results heart ventricle, kidney cortex and spleen membranes
T2 sequence (P15823 1-515): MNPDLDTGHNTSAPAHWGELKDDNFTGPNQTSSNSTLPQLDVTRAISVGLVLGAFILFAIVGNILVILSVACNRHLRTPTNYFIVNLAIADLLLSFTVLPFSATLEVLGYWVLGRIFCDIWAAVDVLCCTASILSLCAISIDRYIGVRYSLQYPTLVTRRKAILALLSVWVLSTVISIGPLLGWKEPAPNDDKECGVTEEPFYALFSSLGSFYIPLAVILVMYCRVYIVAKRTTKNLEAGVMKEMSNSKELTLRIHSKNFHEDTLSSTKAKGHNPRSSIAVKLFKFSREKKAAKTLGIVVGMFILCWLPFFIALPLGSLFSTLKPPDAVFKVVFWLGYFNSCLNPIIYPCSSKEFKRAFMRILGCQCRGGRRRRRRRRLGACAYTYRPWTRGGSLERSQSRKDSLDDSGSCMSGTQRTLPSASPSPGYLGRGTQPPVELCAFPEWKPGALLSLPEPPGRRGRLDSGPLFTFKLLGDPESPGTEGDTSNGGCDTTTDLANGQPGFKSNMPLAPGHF

[14] = tested on: norepinephrine-induced contraction of aorta rings; test: contraction of rabbit aorta rings caused by norepinephrine; settings: 10^-6 M, thirty minutes exposure
Experimental: Rings from aortas of rabbits were prepared using standard procedures, the rings were characterized, and the effects of compound 47 on contraction caused by norepinephrine were characterized.

[15] = tested on: alpha2-adrenoceptors (3H-yohimbine binding sites); test: irreversibility experiment: preincubation and washing of brain membranes, then 3H-yohimbine binding; design: species or system rat; settings: preincubated and washed
Experimental: as §3, §4

T1 sequence (P18090 whole entry): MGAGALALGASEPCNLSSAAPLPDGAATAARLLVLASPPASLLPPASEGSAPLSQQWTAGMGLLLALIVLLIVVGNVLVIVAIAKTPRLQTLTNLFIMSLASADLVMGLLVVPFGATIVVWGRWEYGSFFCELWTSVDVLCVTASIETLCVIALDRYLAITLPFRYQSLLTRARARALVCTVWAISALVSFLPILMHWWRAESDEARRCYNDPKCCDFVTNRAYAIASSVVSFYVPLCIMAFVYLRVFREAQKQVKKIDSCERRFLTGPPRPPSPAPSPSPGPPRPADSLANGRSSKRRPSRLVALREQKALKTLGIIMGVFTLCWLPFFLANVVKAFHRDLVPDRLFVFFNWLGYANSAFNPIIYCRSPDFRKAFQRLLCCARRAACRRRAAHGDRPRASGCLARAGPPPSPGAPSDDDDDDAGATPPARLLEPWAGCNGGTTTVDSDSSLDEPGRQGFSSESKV

## COc1cc2nc(N3CCN(C(=O)c4ccco4)CC3)nc(N)c2cc1OC [Compound 1, 2-(4-(2-furoyl)-piperazine-1-yl)-4-amino-6,7-dimethoxy-quinazoline, reference compound]
[1]
  -logIC50: 9.79
[2]
  effect on blood pressure response to phenylephrine: a higher concentration of pressor compounds was required to obtain increases in blood pressure
[3]
  lowering of blood pressure: lower blood pressure in hypertensive patients and in normotensive and hypertensive animals
[4]; listed as Prazosin
  irreversible blockade / effect on 3H-prazosin binding sites (in words): prevented the decrease in binding sites caused by compound 47 alone; also recorded: had no effect on ^3 -prazosin binding
[4]; listed as prazosin
  irreversible blockade / effect on 3H-prazosin binding sites (in words): Washing the prazosin from the membranes restored the number of alpha1 -adrenoceptors
[5]
  effect on blood pressure response to BHT 933: a higher concentration of pressor compounds was required to obtain increases in blood pressure
[6]
  receptor specificity (in words): preferential affinity for postysynaptic alpha1 -adrenoreceptors

## COc1cc2nc(N3CCN(C(=O)C4=CC5C=CC4CC5)CC3)nc(N)c2cc1OC (stereo not drawn) [Compound 47, 4-amino-2(4-bicyclo[2.2.2]octa-2,5-diene-2-carboxypiperazin-1-yl)-6,7-dimethoxyquinazoline]
[7]; 10 mg/kg i.p., brain
  % Reduction in Bmax, brain: 36%
[7]; 10 mg/kg i.p., brain, control 0.317 ± 0.071, read-out: Kd, experimental, brain
  Kd: 0.292 ± 0.045 nM
[7]; 10 mg/kg i.p., heart
  % Reduction in Bmax, heart: 43%
[7]; 10 mg/kg i.p., heart, control 0.150 ± 0.019, read-out: Kd, experimental, heart
  Kd: 0.255 ± 0.072 nM
[7]; 10 mg/kg i.p., kidney
  % Reduction in Bmax, kidney: 21%
[7]; 10 mg/kg i.p., vs vehicle
  decrease in Bmax, brains and hearts: 32-44%
[7]; i.p.
  Kd of remaining receptors after i.p. injection (in words): a significant increase in the Kd of the remaining receptors was seen
[8]
  effect of preincubation on 3H-DHA binding (beta): unaffected
[8]; listed as alkylated prazosin
  effect of preincubation on 3H-DHA binding (beta): did not introduce permanent change
[9]; FIG. 1, rat brain cortex membranes, read-out: Apparent Ki at 3H-DHA binding sites
  Ki: 5910 nM
[9]; brain membranes
  displacement of 3H-DHA (in words): much weaker competitor
[10]
  effect on muscarinic-activated calcium efflux: did not interfere in the efflux of calcium ions
[1]
  -logIC50: 7.99
[1]; FIG. 1, rat brain cortex membranes, read-out: Apparent Ki at 3H-prazosin binding sites
  Ki: 3.44 nM
[1]; discussion of Table 1
  affinity to alpha1-adrenoceptors (in words): excellent affinity; also recorded: apparent nanomolar potency
[11]
  inhibition of catecholamine-activated calcium efflux: potently inhibited the efflux of calcium ions
[2]
  effect on blood pressure response to phenylephrine: counteracted only to phenylephrine
[12]; FIG. 1, rat brain cortex membranes, read-out: Apparent Ki at 3H-yohimbine binding sites
  Ki: 884 nM
[12]; brain membranes
  affinity at 3H-yohimbine binding sites relative to 3H-prazosin binding sites: over a hundred times lower
  displacement of 3H-yohimbine (in words): much weaker competitor
[4]; FIG. 6, 1×10^-8 M, preincubation 15 min to 3 hr
  preincubation time to maximum blockade: about 45 minutes
[4]; after preincubation and washing
  Kd (KD) of remaining 3H-prazosin binding sites (in words): without a change in the affinity (KD) of the remaining sites; also recorded: Higher concentrations in the preincubation mixture increased the Kd of the remaining sites; also recorded: only decreased the concentration of ligand by 10- and 100-fold, respectively, at which the large Kd effects were noted; also recorded: the Kd of the remaining receptors increased when lower concentrations of added ligand were used in the diluted preincubation mixtures
[4]; brain membranes, 1 micromole of compound 47 in preincubation
  blockage of 3H-prazosin binding: approximately 50%
[4]; brain membranes, altered protocols
  maximum blockade of 3H-prazosin binding sites: no more than 50%
[4]; brain membranes, preincubated with 10 nM, washed
  reduction of 3H-prazosin binding: 50%
[4]; brain membranes, two preincubations with 10 nM, FIG. 7
  maximum blockade after double preincubation: ≤ 50%
[4]; heart membranes, preincubated, FIG. 3
  blockade of binding sites, heart membranes: 40-50%
[4]; kidney membranes, preincubated, FIG. 3
  blockade of binding sites, kidney membranes: 40-50%
[4]
  irreversible blockade / effect on 3H-prazosin binding sites (in words): irreversible; also recorded: decreased the number of alpha1 -adrenoceptors permanently
[4]; listed as alkylated prazosin
  irreversible blockade / effect on 3H-prazosin binding sites (in words): Only approximately one half of the alpha1 -adrenoceptors could be eliminated in a clean manner
[4]; preincubation time, ligand/receptor ratio, buffer, (-)epinephrine, double preincubation
  blockade of 3H-prazosin binding sites under altered protocols (in words): remained at this level even after three hours of preincubation; also recorded: No difference in blockade; also recorded: Increasing the preincubation time up to three hours did not increase the amount of blockade; also recorded: did not change the outcome of the results; also recorded: did not affect the amount of blockade; also recorded: did not lead to further blockade
[13]
  decrease in binding sites, spleen membranes: 18%
[14]
  persistence of effect on norepinephrine contraction of aorta rings: could not be cancelled by 21 hours of washing at 4 °C
[15]
  effect of preincubation on 3H-yohimbine binding (alpha2): did not irreversibly block ^3 -yohimbine binding sites; also recorded: unaffected
[15]; listed as alkylated prazosin
  effect of preincubation on 3H-yohimbine binding (alpha2): did not introduce permanent change
